# Experimental data reported in patent publication US5834453A, “Methods for the manufacture and use of antimicrobial sterol conjugates” (Lehigh University, priority 1997, dated 1998).
# Entries after “also recorded” stand apart in the source; their conditions may differ.
# Assays:
# [1] = test system: A. fumigatus (H1120); assay: MIC, micro-broth dilution; format: cell-based; conditions: Aspergillus fumigatus, 35° C., 24 hours, read-out: ANTIMICROBIAL ACTIVITY (MIC)
# Method: (§1) The antimicrobial activity of the compounds according to the present invention were compared with the results obtained for squalamine as reported in Proc. Nat. Acad. Sci. USA 90:1354 (1993), supra, the disclosure of which is incorporated in toto herein. The data reported in the following table is the minimum inhibitory concentration (MIC) required for complete inhibition of microbial growth. The MIC was determined utilizing known micro-broth dilution methods in which inocula of 10^6 /ml of the test organism were incubated in 0.5× trypticase soy broth at 35° C. for 24 hours. MIC's were also tested under various pH conditions, with calcium chloride or magnesium chloride, or with immobilized horse serum.
# (§2) The numbers in parentheses contained in the table correspond to accession numbers with the American Type Culture Collection (reference strains were either obtained from the American Type Culture Collection or from the Microbiology Laboratory at Memorial Sloan-Kettering Cancer Center; Bacterial strains were maintained on Columbia 5% sheep blood agar plates, and fungi were maintained on Sabouraud Dextrose agar plates).
# [2] = test system: A. fumigatus (H29709); assay: MIC, micro-broth dilution; format: cell-based; conditions: Aspergillus fumigatus, 35° C., 24 hours, read-out: ANTIMICROBIAL ACTIVITY (MIC)
# Method: as §1, §2
# [3] = test system: C. albicans (90028); assay: MIC, micro-broth dilution; format: cell-based; conditions: Candida albicans, 35° C., 24 hours, read-out: ANTIMICROBIAL ACTIVITY (MIC)
# Method: as §1, §2
# [4] = test system: C. neoformans (90012); assay: MIC, micro-broth dilution; format: cell-based; conditions: Cryptococcus neoformans, 24 h, read-out: ANTIMICROBIAL ACTIVITY (MIC)
# Method: as §1, §2
# [5] = test system: C. neoformans (M68979); assay: MIC, micro-broth dilution; format: cell-based; conditions: Cryptococcus neoformans, 24 h, read-out: ANTIMICROBIAL ACTIVITY (MIC)
# Method: as §1, §2
# [6] = test system: E. cloacae (13047); assay: MIC, micro-broth dilution; format: cell-based; conditions: Enterobacter cloacae, 35° C., 24 hours, read-out: ANTIMICROBIAL ACTIVITY (MIC)
# Method: as §1, §2
# [7] = test system: E. coli (25922); assay: MIC, micro-broth dilution; format: cell-based; conditions: Escherichia coli, 35° C., 24 hours, read-out: ANTIMICROBIAL ACTIVITY (MIC)
# Method: as §1, §2
# [8] = test system: E. faecalis (29212); assay: MIC, micro-broth dilution; format: cell-based; conditions: Enterococcus faecalis, 35° C., 24 hours, read-out: ANTIMICROBIAL ACTIVITY (MIC)
# Method: as §1, §2
# [9] = test system: E. faecium (T6480-9); assay: MIC, micro-broth dilution; format: cell-based; conditions: Enterococcus faecium, 35° C., 24 hours, read-out: ANTIMICROBIAL ACTIVITY (MIC)
# Method: as §1, §2
# [10] = test system: K. pneumoniae (13883); assay: MIC, micro-broth dilution; format: cell-based; conditions: Klebsiella pneumoniae, 24 h, read-out: ANTIMICROBIAL ACTIVITY (MIC)
# Method: as §1, §2
# [11] = test system: P. aeruginosa (10145); assay: MIC, micro-broth dilution; format: cell-based; conditions: Pseudomonas aeruginosa, 35° C., 24 hours, read-out: ANTIMICROBIAL ACTIVITY (MIC)
# Method: as §1, §2
# [12] = test system: P. aeruginosa (2853); assay: MIC, micro-broth dilution; format: cell-based; conditions: Pseudomonas aeruginosa, 24 h, read-out: ANTIMICROBIAL ACTIVITY (MIC)
# Method: as §1, §2
# [13] = test system: P. vulgaris (13315); assay: MIC, micro-broth dilution; format: cell-based; conditions: Proteus vulgaris, 35° C., 24 hours, read-out: ANTIMICROBIAL ACTIVITY (MIC)
# Method: as §1, §2
# [14] = test system: S. agalactiae (13813); assay: MIC, micro-broth dilution; format: cell-based; conditions: Streptococcus agalactiae, 35° C., 24 hours, read-out: ANTIMICROBIAL ACTIVITY (MIC)
# Method: as §1, §2
# [15] = test system: S. aureus (25923); assay: MIC, micro-broth dilution; format: cell-based; conditions: Staphylococcus aureus, 35° C., 24 hours, read-out: ANTIMICROBIAL ACTIVITY (MIC)
# Method: as §1, §2
# [16] = test system: S. aureus (29213); assay: MIC, micro-broth dilution; format: cell-based; conditions: Staphylococcus aureus, 24 h, read-out: ANTIMICROBIAL ACTIVITY (MIC)
# Method: as §1, §2
# [17] = test system: S. aureus (H20809); assay: MIC, micro-broth dilution; format: cell-based; conditions: Staphylococcus aureus, 24 h, read-out: ANTIMICROBIAL ACTIVITY (MIC)
# Method: as §1, §2
# [18] = test system: S. epidermidis (12228); assay: MIC, micro-broth dilution; format: cell-based; conditions: Staphylococcus epidermidis, 35° C., 24 hours, read-out: ANTIMICROBIAL ACTIVITY (MIC)
# Method: as §1, §2
# [19] = test system: S. marcescens (13880); assay: MIC, micro-broth dilution; format: cell-based; conditions: for MIC: Serratia marcescens, 24 h, read-out: ANTIMICROBIAL ACTIVITY (MIC)
# Method: as §1, §2
# [20] = test system: S. pneumoniae (6305); assay: MIC, micro-broth dilution; format: cell-based; conditions: Streptococcus pneumoniae, 35° C., 24 hours, read-out: ANTIMICROBIAL ACTIVITY (MIC)
# Method: as §1, §2
# [21] = test system: S. pyrogenes (19615); assay: MIC, micro-broth dilution; format: cell-based; conditions: 24 h, read-out: ANTIMICROBIAL ACTIVITY (MIC)
# Method: as §1, §2
# [22] = Hemolytic activity, minimal hemolytic concentration (MHC); format: cell-based, sheep; conditions: sheep, red blood cells;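 also: MCC here is the minimal hemolytic concentration (MHC)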
# Method: Hemolytic activity of the squalamine mimics according to the present invention were also studied by incubating sheep red blood cells for 24 hours at 37° C. in saline (final concentration of 0.5%) with or without respective concentrations of the squalamine mimics. The minimal hemolytic concentration (MHC) was determined as the lowest concentration of a mimic that raised visible hemolysis.
SMILES,MIC [1] [µg/mL],MIC [2] [µg/mL],MIC [3] [µg/mL],MIC [4] [µg/mL],MIC [5] [µg/mL],MIC [6] [µg/mL],MIC [7] [µg/mL],MIC [8] [µg/mL],MIC [9] [µg/mL],MIC [10] [µg/mL],MIC [11] [µg/mL],MIC [12] [µg/mL],MIC [13] [µg/mL],MIC [14] [µg/mL],MIC [15] [µg/mL],MIC [16] [µg/mL],MIC [17] [µg/mL],MIC [18] [µg/mL],MIC [19] [µg/mL],MIC [20] [µg/mL],also measured
C[C@H](CCC(=O)NCCCCN)[C@H]1CC[C@H]2[C@@H]3CC[C@@H]4C[C@H](O)CC[C@]4(C)[C@H]3C[C@H](O)[C@]12C [SM-9],50,50,25,25,25,50,50,25,50,50,100,100,50,12.5,25,25,25,25,> 100,25,MIC [21]: 6.25 µg/mL; MCC at 24 h [22]: 50 µg/mL
C[C@H](CCC(=O)NCCNCCNCCN)[C@H]1CC[C@H]2[C@@H]3CC[C@@H]4C[C@H](O)CC[C@]4(C)[C@H]3C[C@H](O)[C@]12C [SM-11],12.5,12.5,12.5,6.25,6.25,12.5,12.5,12.5,12.5,12.5,6.25,6.25,25,6.25,6.25,12.5,12.5,6.25,50,12.5,activity against S. marcescens ([19]; in words): found even against S. marcescens; also recorded: effective against S. marcescens; MIC [21]: 6.25 µg/mL; MCC at 24 h [22]: 25 µg/mL
